Measured values taken from patent publication US20220096410A1, “PHARMACEUTICAL COMPOSITION FOR INTRAOCULAR OR ORAL ADMINISTRATION FOR TREATMENT OF RETINAL DISEASES” (FUSO PHARMACEUTICAL INDUSTRIES, LTD., priority 2019, published 2022).

Legend:
Assay type in all cases: in vivo, BALB/c mice
[1] = tested on: light irradiation model (atrophic AMD model mouse); assay: Pharmacological test against AMD, light-induced AMD model mice, oral administration, ONL thickness
Method: A test was performed using a light irradiation model, which is widely employed as an atrophic AMD model mouse, as a test model. Male BALB/c mice (4 weeks old) were purchased from Japan SLC, Inc., and allowed to acclimate for a week before being used for experiments. Laboratory animal chow (CLEA Rodent Diet CE-2, CREA JAPAN, INC.) was used as food, and tap water was freely consumed as drinking water. The animals were raised under light and dark cycles of every 12 hours. Also all animal experiments were conducted under the approval of the Kyushu University Animal Experiment Committee. To BALB/c mice, 1 mL/kg of 50 μM compound dissolved in PBS containing 10% polyethylene glycol (PEG) 300 was orally administered. Thirty (30) minutes later, one drop of […] (5 mg/mL tropicamide, 5 mg/mL phenylephrine hydrochloride; Santen Pharmaceutical Co., Ltd.) was applied to each eye as a mydriatic drug. The mice were irradiated with 8000 lux white light for 10 hours, then returned to under normal light and dark cycles, and raised for 6 days. On day 7, the animal was euthanized by cervical dislocation, and the eyeballs were removed (FIG. 1A). Frozen sections of 8 μm thickness were prepared by using the above-mentioned removed eyeballs, and subjected to hematoxylin eosin (HE) staining, and the thickness of the outer nuclear layer (ONL) was measured over 27 points every 180 μm (observation magnification: 60 times) (FIG. 1B). The preparation was air-dried for 1 hour, fixed with acetone at room temperature for 15 minutes, then immersed in 99.5% EtOH, 80% EtOH, 70% EtOH, and purified water in this order for 3 minutes each, and stained with hematoxylin for 10 minutes. Then, it was washed with running water for 10 minutes, soaked in warm water for 1 minute, and stained with eosin for 1.5 minutes. After washing with purified water, it was immersed in 70% EtOH, 80% EtOH, and 99.5% EtOH in this order for 3 minutes each, then washed with xylene three times, dried, and then enclosed with VectaMountTM Mounting Medium. The resultant was subjected to observation and imaging with Keyence fluorescence microscope (BZ-9000). Results were expressed as mean+standard deviation. Dunnett's Test was used for multigroup comparison.

[2] = tested on: light irradiation model (atrophic AMD model mouse); assay: Pharmacological test against AMD, light-induced AMD model mice, administration by eye drop, ONL thickness; conditions: 50 μL per one eye
Method: A test was performed using a light irradiation model, which is widely employed as an atrophic AMD model mouse, as a test model.
(§1) Male BALB/c mice (4 weeks old) were purchased from Japan SLC, Inc., and allowed to acclimate for a week before being used for experiments. Laboratory animal chow (CLEA Rodent Diet CE-2, CREA JAPAN, INC.) was used as food, and tap water was freely consumed as drinking water. The animals were raised under light and dark cycles of every 12 hours. Also all animal experiments were conducted under the approval of the Kyushu University Animal Experiment Committee.
To BALB/c mice, Midrin P (5 mg/mL tropicamide, 5 mg/mL phenylephrine hydrochloride; Santen Pharmaceutical Co., Ltd.) as a mydriatic drug was applied to both eyes by one drop per one eye, and after 10 minutes, 0.45%, 0.75% or 1% of methyldopa that was dissolved in PBS containing 10% polyethylene glycol (PEG) 300 was administered with eye drop in 50 μL of the compound per one eye. Thereafter, the mice were irradiated with 8000 lux white light for 10 hours, then returned to under normal light and dark cycles, and raised for 6 days. On day 7, the animal was euthanized by cervical dislocation, and the eyeballs were removed.
Frozen sections of 8 μm thickness were prepared by using the above-mentioned removed eyeballs, and subjected to hematoxylin eosin (HE) staining, and the thickness of the outer nuclear layer (ONL) was measured over 27 points every 180 μm (observation magnification: 40 times).
The preparation was air-dried for 1 hour, fixed with acetone at room temperature for 15 minutes, then immersed in 99.5% EtOH, 80% EtOH, 70% EtOH, and purified water in this order for 3 minutes each, and stained with hematoxylin for 10 minutes. Then, it was washed with running water for 10 minutes, soaked in warm water for 1 minute, and stained with eosin for 1.5 minutes. […] The resultant was subjected to observation and imaging with Keyence fluorescence microscope (BZ-9000).
Results were expressed as mean+standard deviation. […]

[3] = tested on: mRNA of Muller cell marker protein; assay: Activity evaluation test of Muller cell (real-time PCR of retina, AMD model mice); conditions: oral, 1 mL/kg of 50 μM, pathological group of mice
Description: For age-related macular degeneration (AMD), the suppression activity of the test compounds against the expression amount of mRNA of a marker protein, which is used as an indicator of activity of Muller cell and is increased as a pathology is deteriorated, was examined. The present compound as test compound was methyldopa (Compound Y).
as §1
A method for producing age-related macular degeneration (AMD) model mice (production schedule) was prepared according to the method described in Test Example 2 (FIG. 3). […]
For the removed retina, RNA was extracted by using ISOSPIN Cell & Tissue RNA (manufactured by Nippon Gene Co. Ltd), and cDNA was then synthesized by using ReverTra Ace™ qPCR RT master Mix (manufactured by Toyobo Co. Ltd). […] All of the test results were corrected by Gapdh mRNA amounts, and a relative quantification was carried.

[4] = tested on: mRNA of microglia marker protein; assay: Activity evaluation test of microglia (real-time PCR of retina, AMD model mice); conditions: oral, 1 mL/kg of 50 μM, pathological group of mice
mRNA of the complement = assay: Activity evaluation test of complement (real-time PCR of retina, AMD model mice); conditions: oral, 1 mL/kg of 50 μM, pathological group of mice
Method: Specifically, to 9 week olds of BALB/c mice, 1 mL/kg of 50 μM test compounds dissolved in PBS containing 10% polyethylene glycol (PEG) 300 was orally administered. A PBS solution containing 10% polyethylene glycol (PEG) 300 was used as a control. Thirty (30) minutes later, one drop of Midrin P (5 mg/mL tropicamide, 5 mg/mL phenylephrine hydrochloride; Santen Pharmaceutical Co., Ltd.) as a mydriatic drug was applied to both eyes by one drop per one eye. The mice were irradiated with 8000 lux white light for 10 hours, then returned to under normal light and dark cycles, and raised for the desirable observation periods. After the observation periods, the animal was euthanized by cervical dislocation, and the retina were removed.
For the removed retina, RNA was extracted by using ISOSPIN Cell & Tissue RNA (manufactured by Nippon Gene Co. Ltd), and cDNA was then synthesized by using ReverTra Ace™ qPCR RT master Mix (manufactured by Toyobo Co. Ltd). The obtained cDNA was diluted with sterile water to 0.5 ng/μL, and a real-time PCR was carried out with THUNDERBIRD™ SYBR™ qPCR Mix (manufactured by Toyobo Co. Ltd). All of the test results were corrected by Gapdh mRNA amounts, and a relative quantification was carried. […]

[5] = 50 μmol/kg, 8000 lux white light 10 hours, day 7

Compound | ONL thickness compared to positive control [1, 5] | ONL thickness compared to positive control ([1]; 100 μmol/kg) | ONL thickness compared to positive control ([1]; 200 μmol/kg) | ONL thickness compared to light irradiation case ([2]; eye drop 0.45%) | ONL thickness compared to light irradiation case ([2]; eye drop 0.75%) | ONL thickness compared to light irradiation case ([2]; eye drop 1%) | expression amounts of mRNA in Muller cell marker protein [3] | expression amounts of mRNA in microglia marker protein [4] | expression amounts of mRNA in the complement (mRNA of the complement)
CC1Cc2ccccc2N1NC(=O)c1ccc(Cl)c(S(N)(=O)=O)c1 (racemic) [indapamide, 4-Chloro-N-[(2RS)-2-methyl-2,3-dihydro-1H-indol-1-yl]-3-sulfamoyl Benzamide] | not different so much compared to that of the positive control | – | – | – | – | – | – | – | –
CCOc1ccc2c(c1)C(C)=CC(C)(C)N2 [ethoxyquin, 6-Ethoxy-2,2,4-trimethyl-1,2-dihydroquinoline] | not different so much compared to that of the positive control | – | – | – | – | – | – | – | –
C[C@](N)(Cc1ccc(O)c(O)c1)C(=O)O [methyldopa, Methyldopa Sesquihydrates] | – | didn't have significant difference compared to that of the positive control | didn't have significant difference compared to that of the positive control | significant thickness compared to that of the light irradiation case | significant thickness compared to that of the light irradiation case | significant thickness compared to that of the light irradiation case | suppress significantly | suppress significantly | suppress significantly
